Measured values from ChEMBL document CHEMBL1149282, “A systematic approach to the optimization of substrate-based inhibitors of the hepatitis C virus NS3 protease: discovery of potent and specific tripeptide inhibitors” (J Med Chem, 2004).
Blank lines part the entries; values can stand above or below the compound they belong to. Square brackets hold non-standard residues; d marks the D form. Peptide text beside a SMILES is read from it. * marks the point of attachment. Hyp(2-Ph-quinolin-4-yl) = O=C(O)[C@@H]1C[C@@H](Oc2cc(-c3ccccc3)nc3ccccc23)CN1; Hyp(quinolin-4-yl) = O=C(O)[C@@H]1C[C@@H](Oc2ccnc3ccccc23)CN1; Ac3c(1R,2S-2-vinyl) = C=C[C@@H]1C[C@]1(N)C(=O)O; Hyp = O=C(O)[C@@H]1C[C@@H](O)CN1; Chg = N[C@H](C(=O)O)C1CCCCC1; X1 = c1ccc2cc(C*)ccc2c1

Columns and labels:
[1] = Inhibition of HCV NS3 protease; set-up: species or system Hepacivirus hominis
Hepatitis C virus = test: Antiviral activity in Huh7 cells containing sub-genomic HCV subtype 1b replicon by RT-PCR; assay type: functional, organism-based, Hepacivirus hominis; conditions: genotype 1b, Huh-7
Neutrophil elastase = molecular target: T1, Neutrophil elastase (Homo sapiens, UniProt P08246); test: Inhibition of human leucocyte elastase
T1 sequence (P08246 whole entry): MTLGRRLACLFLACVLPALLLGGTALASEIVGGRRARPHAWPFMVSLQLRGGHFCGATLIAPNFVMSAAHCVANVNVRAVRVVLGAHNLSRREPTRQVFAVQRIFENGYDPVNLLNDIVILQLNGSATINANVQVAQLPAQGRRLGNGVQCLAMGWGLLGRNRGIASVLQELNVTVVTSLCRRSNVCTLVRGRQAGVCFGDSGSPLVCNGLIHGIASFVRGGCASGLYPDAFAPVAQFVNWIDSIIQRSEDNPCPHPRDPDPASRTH

Cathepsin B = Cathepsin B (Homo sapiens, UniProt P07858); test: Inhibition of human cathepsin B

Structure (SMILES): C=C[C@@H]1C[C@]1(NC(=O)[C@@H]1C[C@@H](Oc2cc(-c3ccccc3)nc3cc(OC)ccc23)CN1C(=O)[C@@H](OC(=O)NC1CCCC1)C(C)(C)C)C(=O)O
- IC50 [1]: 148 nM

Structure (SMILES): C=C[C@@H]1C[C@]1(NC(=O)[C@@H]1C[C@@H](OCc2ccc3ccccc3c2)CN1C(=O)[C@@H](NC(=O)[C@@H](NC(C)=O)C1CCCCC1)C(C)C)C(=O)O (Ac-[Chg]V[Hyp](X1)[Ac3c(1R,2S-2-vinyl)]-OH)
- IC50 [1]: 600 nM

Structure (SMILES): C=C[C@@H]1C[C@]1(NC(=O)[C@@H]1C[C@@H](Oc2cc(-c3ccccc3)nc3cc(Br)ccc23)CN1C(=O)[C@@H](NC(=O)OC(C)(C)C)C(C)(C)C)C(=O)O
- IC50 [1]: 350 nM

Structure (SMILES): C=C[C@@H]1C[C@]1(NC(=O)[C@@H]1C[C@@H](Oc2cc(-c3ccccc3)nc3cc(C(F)(F)F)ccc23)CN1C(=O)[C@@H](NC(=O)OC(C)(C)C)C(C)(C)C)C(=O)O
- IC50 [1]: 828 nM

Structure (SMILES): C=C[C@@H]1C[C@]1(NC(=O)[C@@H]1C[C@@H](Oc2ccnc3ccccc23)CN1C(=O)[C@@H](NC(=O)[C@@H](NC(C)=O)C1CCCCC1)C(C)C)C(=O)O (Ac-[Chg]V[Hyp(quinolin-4-yl)][Ac3c(1R,2S-2-vinyl)]-OH)
- IC50 [1]: 170 nM

Structure (SMILES): C=C[C@@H]1C[C@]1(NC(=O)[C@@H]1C[C@@H](Oc2cc(-c3ccccc3)nc3cc(OC)ccc23)CN1C(=O)[C@@H](NC(=O)CC1CCCCC1)C(C)(C)C)C(=O)O
- IC50 [1]: 37 nM

Structure (SMILES): C=C[C@@H]1C[C@]1(NC(=O)[C@@H]1C[C@@H](Oc2cc(-c3ccccc3)nc3cccc(OC)c23)CN1C(=O)[C@@H](NC(=O)[C@@H](NC(C)=O)C1CCCCC1)C(C)C)C(=O)O
- IC50 [1]: 557 nM

Structure (SMILES): C=C[C@@H]1C[C@]1(NC(=O)[C@@H]1C[C@@H](Oc2cc(-c3ccccc3)nc3cc(OC)ccc23)CN1C(=O)[C@@H](NC(=O)[C@@H](C)C1CCCCC1)C(C)(C)C)C(=O)O
- IC50 [1]: 37 nM

Structure (SMILES): C=C[C@@H]1C[C@]1(NC(=O)[C@@H]1C[C@@H](Oc2cc(-c3ccccc3)nc3cc(SC)ccc23)CN1C(=O)[C@@H](NC(=O)OC(C)(C)C)C(C)(C)C)C(=O)O
- IC50 [1]: 139 nM

Structure (SMILES): C=C[C@@H]1C[C@]1(NC(=O)[C@@H]1C[C@@H](Oc2cc(-c3ccccc3)nc3cc(OC(F)(F)F)ccc23)CN1C(=O)[C@@H](NC(=O)OC(C)(C)C)C(C)(C)C)C(=O)O
- IC50 [1]: 790 nM

Structure (SMILES): C=C[C@@H]1C[C@]1(NC(=O)[C@@H]1C[C@@H](Oc2cc(-c3ccccc3)nc3cc(OC)ccc23)CN1C(=O)[C@@H](NC(=O)N(C)C(C)(C)C)C(C)(C)C)C(=O)O
- IC50 [1]: 205 nM

Structure (SMILES): C=C[C@@H]1C[C@]1(NC(=O)[C@@H]1C[C@@H](Oc2cc(-c3ccccc3)nc3ccccc23)CN1C(=O)[C@@H](NC(=O)OC(C)(C)C)C(C)(C)C)C(=O)O
- IC50 [1]: 150 nM

Structure (SMILES): C=C[C@@H]1C[C@]1(NC(=O)[C@@H]1C[C@@H](Oc2cc(-c3ccccc3)nc3cc(C(=O)O)ccc23)CN1C(=O)[C@@H](NC(=O)OC(C)(C)C)C(C)(C)C)C(=O)O
- IC50 [1]: > 1000 nM

Structure (SMILES): C=C[C@@H]1C[C@]1(NC(=O)[C@@H]1C[C@@H](Oc2cc(-c3ccccc3)nc3ccc(OC)cc23)CN1C(=O)[C@@H](NC(=O)[C@@H](NC(C)=O)C1CCCCC1)C(C)C)C(=O)O
- IC50 [1]: 41 nM

Structure (SMILES): C=C[C@@H]1C[C@]1(NC(=O)[C@@H]1C[C@@H](Oc2cc(-c3ccccc3)nc3cc(F)ccc23)CN1C(=O)[C@@H](NC(=O)OC(C)(C)C)C(C)(C)C)C(=O)O
- IC50 [1]: 282 nM

Structure (SMILES): C=C[C@@H]1C[C@]1(NC(=O)[C@@H]1C[C@@H](Oc2cc(-c3ccccc3)nc3cc(OC(C)C)ccc23)CN1C(=O)[C@@H](NC(=O)OC(C)(C)C)C(C)(C)C)C(=O)O
- IC50 [1]: 228 nM

These reach a lower IC50 [1]. Values come first.

- IC50 [1]: 13 nM
Structure (SMILES): C=C[C@@H]1C[C@]1(NC(=O)[C@@H]1C[C@@H](Oc2cc(-c3ccccc3)nc3c(OC)c(OC)ccc23)CN1C(=O)[C@@H](NC(=O)[C@@H](NC(C)=O)C1CCCCC1)C(C)C)C(=O)O

- EC50 (Hepatitis C virus): 660 nM
- IC50 [1]: 29 nM
- IC50 (Neutrophil elastase): > 75000 nM
Structure (SMILES): C=C[C@@H]1C[C@]1(NC(=O)[C@@H]1C[C@@H](Oc2cc(-c3ccccc3)nc3cc(OC)ccc23)CN1C(=O)[C@@H](NC(=O)OC(C)(C)C)C(C)(C)C)C(=O)O

- IC50 [1]: 14 nM
Structure (SMILES): C=C[C@@H]1C[C@]1(NC(=O)[C@@H]1C[C@@H](Oc2cc(-c3ccccc3)nc3cc(OC)ccc23)CN1C(=O)[C@@H](NC(=O)OC1CCCC1)C(C)(C)C)C(=O)O

- IC50 [1]: 29 nM
Structure (SMILES): C=C[C@@H]1C[C@]1(NC(=O)[C@@H]1C[C@@H](Oc2cc(-c3ccccc3)nc3cc(NC(C)=O)ccc23)CN1C(=O)[C@@H](NC(=O)OC(C)(C)C)C(C)(C)C)C(=O)O

- IC50 [1]: 18 nM
Structure (SMILES): C=C[C@@H]1C[C@]1(NC(=O)[C@@H]1C[C@@H](Oc2cc(-c3ccccc3)nc3cc(OC)ccc23)CN1C(=O)[C@@H](NC(=O)[C@@H](N)C1CCCCC1)C(C)(C)C)C(=O)O

- IC50 [1]: 5 nM
Structure (SMILES): C=C[C@@H]1C[C@]1(NC(=O)[C@@H]1C[C@@H](Oc2cc(-c3ccccc3)nc3c(OC)cccc23)CN1C(=O)[C@@H](NC(=O)[C@@H](NC(C)=O)C1CCCCC1)C(C)C)C(=O)O

- IC50 [1]: 2 nM
Structure (SMILES): C=C[C@@H]1C[C@]1(NC(=O)[C@@H]1C[C@@H](Oc2cc(-c3ccccc3)nc3cc(OC)ccc23)CN1C(=O)[C@@H](NC(=O)[C@@H](NC(C)=O)C1CCCCC1)C(C)C)C(=O)O

- IC50 [1]: 10 nM
Structure (SMILES): C=C[C@@H]1C[C@]1(NC(=O)[C@@H]1C[C@@H](Oc2ccnc3cc(OC)ccc23)CN1C(=O)[C@@H](NC(=O)[C@@H](NC(C)=O)C1CCCCC1)C(C)C)C(=O)O

- IC50 [1]: 1 nM
Structure (SMILES): C=C[C@@H]1C[C@]1(NC(=O)[C@@H]1C[C@@H](Oc2cc(-c3ccccc3)nc3cc(OC)ccc23)CN1C(=O)[C@@H](NC(=O)[C@@H](NC(C)=O)C1CCCCC1)C(C)(C)C)C(=O)O

- EC50 (Hepatitis C virus): 2900 nM
- IC50 [1]: 9 nM
Structure (SMILES): C=C[C@@H]1C[C@]1(NC(=O)[C@@H]1C[C@@H](Oc2cc(-c3ccccc3)nc3cc(OC)ccc23)CN1C(=O)[C@@H](NC(=O)NC1CCCCC1)C(C)(C)C)C(=O)O

- EC50 (Hepatitis C virus): 960 nM
- IC50 [1]: 24 nM
Structure (SMILES): C=C[C@@H]1C[C@]1(NC(=O)[C@@H]1C[C@@H](Oc2cc(-c3ccccc3)nc3cc(OC)ccc23)CN1C(=O)[C@@H](NC(=O)OC1CCC1)C(C)(C)C)C(=O)O

- EC50 (Hepatitis C virus): 910 nM
- IC50 [1]: 5 nM
Structure (SMILES): C=C[C@@H]1C[C@]1(NC(=O)[C@@H]1C[C@@H](Oc2cc(-c3ccccc3)nc3cc(OC)ccc23)CN1C(=O)[C@@H](NC(=O)NC1CCCC1)C(C)(C)C)C(=O)O

- EC50 (Hepatitis C virus): 460 nM
- IC50 [1]: 30 nM
Structure (SMILES): C=C[C@@H]1C[C@]1(NC(=O)[C@@H]1C[C@@H](Oc2cc(-c3ccccc3)nc3cc(OC)ccc23)CN1C(=O)[C@@H](NC(=O)OC1CCCCC1)C(C)(C)C)C(=O)O

- IC50 (Cathepsin B): > 30000 nM
- IC50 [1]: 13 nM
- IC50 (Neutrophil elastase): > 30000 nM
Structure (SMILES): C=C[C@@H]1C[C@]1(NC(=O)[C@@H]1C[C@@H](Oc2cc(-c3ccccc3)nc3ccccc23)CN1C(=O)[C@@H](NC(=O)[C@@H](NC(C)=O)C1CCCCC1)C(C)C)C(=O)O (Ac-[Chg]V[Hyp(2-Ph-quinolin-4-yl)][Ac3c(1R,2S-2-vinyl)]-OH)

- EC50 (Hepatitis C virus): 1220 nM
- IC50 [1]: 8 nM
Structure (SMILES): C=C[C@@H]1C[C@]1(NC(=O)[C@@H]1C[C@@H](Oc2cc(-c3ccccc3)nc3cc(OC)ccc23)CN1C(=O)[C@@H](NC(=O)NC(C)(C)C)C(C)(C)C)C(=O)O
